SMILES strings stand for the structures.

Holding throughout (assay type): in vivo
The subject of assay [1] is greenhouse red spider mite (Tetranychus urticae). Nature of the assay: Tetranychus spray test, OP-resistant (TETRUR). The conditions noted are these: after 6 days, bean leaf discs. As for the experimental part: Tetranychus Spray Test, OP-resistant (TETRUR)
(§1) Solvents: 78.0 parts by weight of acetone • • 1.5 parts by weight of dimethylformamide
Emulsifer: 0.5 part by weight of alkylaryl polyglycol ether
(§2) To produce a suitable preparation of active compound, 1 part by weight of active compound is mixed with the stated amounts of solvent and emulsifier, and the concentrate is diluted with emulsifier-containing water to the desired concentration.
Discs of bean leaves (Phaseolus vulgaris) which are infested by all stages of the greenhouse red spider mite (Tetranychus urticae) are sprayed with an active compound preparation of the desired concentration.
After 6 days, the effect in % is determined 100% here means that all of the spider mites have been killed; 0% means that none of the spider mites have been killed.

In assay [2] the test system is green peach aphid (Myzus persicae). Kind of assay: Myzus persicae spray test (MYZUPE). The note with it: 500 g/ha, after 6 days, Chinese cabbage disks. As for the experimental part:
Myzus persicae Spray Test (MYZUPE) Solvents: 78 parts by weight of acetone • • 1.5 parts by weight of dimethylformamide Emulsifier: 0.5 part by weight of alkylaryl polyglycol ether To produce a suitable preparation of active compound, 1 part by weight of active compound is mixed with the stated amounts of solvent and emulsifier, and the concentrate is diluted with emulsifier-containing water to the desired concentration. Disks of Chinese cabbage (Brassica pekinensis) infested by all stages of the green peach aphid (Myzus persicae) are sprayed with an active compound formulation of the desired concentration. After 6 days, the effect in % is determined 100% here means that all of the aphids have been killed; 0% means that none of the aphids have been killed.

The test system of the next assay is Lucilia cuprina larvae. Nature of the assay: Lucilia cuprina (48 h) test. The note with it: 100 ppm, after 48 hours, treated horse meat. Here is the method: Lucilia Cuprina (48 h) Solvent: dimethyl sulfoxide To produce a suitable preparation of active compound, 10 mg of active compound are mixed with 0.5 ml of dimethyl sulfoxide, and the concentrate is diluted with water to the desired concentration. Vessels containing horse meat treated with the active compound preparation of the desired concentration are populated with about 20 Lucilia cuprina larvae. After 48 hours, the kill in % is determined 100% means that all larvae have been killed; 0% means that no larvae have been killed.

Assay [3] has as its system larvae of the mustard beetle (Phaedon cochleariae). Kind of assay: Phaedon cochleariae spray test (PHAECO). The note with it: 500 g/ha, after 7 days, Chinese cabbage leaf disks. As for the experimental part:
Phaedon Cochleariae Spray Test (PHAECO)
as §1
Emulsifier: 0.5 part by weight of alkylaryl polyglycol ether
as §2
After 7 days, the effect in % is determined 100% means that all beetle larvae have been killed; 0% means that none of the beetle larvae have been killed.

`COC1CCC2(CC1)NC(=O)C(c1nc(-c3ccc(F)cc3)nn1C)=C2O` (centres unmarked) [Example I-1-a2-1]: the “efficacy (effect in %, spider mites killed)” value in assay [1] (500 g/ha) worked out at 100%. For the same compound, the “efficacy (effect in %, aphids killed)” value in assay [2] is on record as 100%. For `Cn1nc(-c2ccc(Cl)cc2)nc1C1=C(O)C(C)(C)NC1=O` [Example I-1-a1-3], the “efficacy (effect in %, spider mites killed)” value in assay [1] (500 g/ha) came to 100%. Besides, in the assay on Lucilia cuprina larvae, the “efficacy (kill in %)” value is recorded as 90%.

`Cn1nc(-c2ccc(Cl)cc2)nc1C1=C(O)C2(CCC(C(F)(F)F)CC2)NC1=O` (centres unmarked) [Example I-1-a8-3]: the “efficacy (effect in %, spider mites killed)” value in assay [1] (500 g/ha) came out at 100%. In the case of `CON1CCC2(CC1)NC(=O)C(c1nc(-c3ccc(Cl)cc3)nn1C)=C2O` [Example I-1-a10-3], the “efficacy (effect in %, spider mites killed)” value in assay [1] (100 g/ha) was 90%. The “efficacy (effect in %, aphids killed)” value in assay [2] came to 90%. In the case of `CC1COC2(CCC3(CC2)NC(=O)C(c2nc(-c4ccc(Cl)cc4)nn2C)=C3O)OC1` (centres unmarked) [Example I-1-a13-3], the “efficacy (effect in %, aphids killed)” value in assay [2] amounted to 90%.

Consider `COC1CCC2(CC1)NC(=O)C(c1nc(-c3ccccc3)nn1C)=C2O` (centres unmarked) [Example I-1-a2-5], for which the “efficacy (effect in %, aphids killed)” value in assay [2] was found to be 100%.

`CCON1CCC2(CC1)NC(=O)C(c1nc(-c3ccc(Cl)cc3)nn1C)=C2O` [Example I-1-a9-3]: in assay [1] (100 g/ha), the “efficacy (effect in %, spider mites killed)” value came to 90%. Besides, the “efficacy (effect in %, aphids killed)” value in assay [2] is recorded as 90%. In the case of `Cn1nc(-c2ccccc2)nc1C1=C(O)C2(CCOCC2)NC1=O` [Example I-1-a3-5], the “efficacy (effect in %, aphids killed)” value in assay [2] is recorded as 100%. On to `CCn1nc(-c2ccc(Cl)cc2)nc1C1=C(O)C(C)(C)NC1=O` [Example I-1-a1-4], for which, in assay [1] (500 g/ha), the “efficacy (effect in %, spider mites killed)” value is listed as 80%. Besides, in assay [2], the “efficacy (effect in %, aphids killed)” value was found to be 80%.

Take `CCn1nc(-c2ccc(F)cc2)nc1-c1c(O)n2n(c1=O)CCOCC2` [Example I-8-a5]: the “efficacy (effect in %, spider mites killed)” value in assay [1] (100 g/ha) is reported as 90%. With `C=CCOC1CCC2(CC1)NC(=O)C(c1nc(-c3ccc(Cl)cc3)nn1C)=C2O` (centres unmarked) [Example I-1-a11-3], in assay [1] (100 g/ha), the “efficacy (effect in %, spider mites killed)” value is reported as 90%. In addition, the “efficacy (effect in %, aphids killed)” value in assay [2] is on record as 90%. Consider `CC(C)n1nc(-c2ccc(Cl)cc2)nc1C1=C(O)C(C)(C)NC1=O` [Example I-1-a1-9], for which, in assay [1] (100 g/ha), the “efficacy (effect in %, spider mites killed)” value was 90%. As to `CCCOC1CCC2(CC1)NC(=O)C(c1nc(-c3ccc(Cl)cc3)nn1C)=C2O` (centres unmarked) [Example I-1-a6-3], in assay [3], the “efficacy (effect in %, beetle larvae killed)” value was determined as 100%. Also, the “efficacy (effect in %, spider mites killed)” value in assay [1] (500 g/ha) is recorded as 90%. Also, the “efficacy (effect in %, aphids killed)” value in assay [2] worked out at 90%. `CCn1nc(-c2ccc(Cl)cc2)nc1C1=C(O)C2CCCN2C1=O` (centres unmarked) [Example I-1-a4-4]: the “efficacy (effect in %, spider mites killed)” value in assay [1] (500 g/ha) is given as 100%.

On to `Cn1nc(-c2ccc(F)cc2)nc1C1=C(O)C2(CCOCC2)NC1=O` [Example I-1-a3-1], for which the “efficacy (effect in %, spider mites killed)” value in assay [1] (500 g/ha) was 100%.

For `COC1CCC2(CC1)NC(=O)C(c1nc(-c3ccc(Cl)cc3)nn1C)=C2O` (centres unmarked) [Example I-1-a2-3], the “efficacy (effect in %, spider mites killed)” value in assay [1] (500 g/ha) amounted to 100%. In addition, the “efficacy (effect in %, aphids killed)” value in assay [2] stood at 100%.

As for `Cn1nc(-c2ccc(Cl)cc2)nc1-c1c(O)n2n(c1=O)CCOCC2` [Example I-8-a3], the “efficacy (effect in %, spider mites killed)” value in assay [1] (100 g/ha) is 90%. In addition, the “efficacy (effect in %, aphids killed)” value in assay [2] was determined as 90%. For `CC1CCC2(CC1)NC(=O)C(c1nc(-c3ccc(Cl)cc3)nn1C)=C2O` (centres unmarked) [Example I-1-a7-3], the “efficacy (effect in %, spider mites killed)” value in assay [1] (500 g/ha) is reported as 90%. Moreover, in assay [2], the “efficacy (effect in %, aphids killed)” value was found to be 90%.

Values taken from patent US9198432B2, “1,2,4-triazolyl-substituted ketoenols” (BAYER INTELLECTUAL PROPERTY GMBH, priority 2011, dated 2015).
